According to US20220008438A1 (priority 2020, published 2022):

What was measured:
[1] = in vivo, cited from earlier work
murine macrophages = conditions: cited from earlier work
primary HIV-1 isolated = test: HIV-1 replication in MT2 cell line assays; type: cell-based
Description: The total destruction of the viral culture was observed from concentrations of 25 μg/ml of TMA's Maslinic acid, while between 5 and 20 μg/ml, a decrease in viability was observed between 57% and 19%.

HIV-1 protease = HIV-1 protease (Human immunodeficiency virus type 1 group M subtype B, UniProt P04585); conditions: in vitro; cited from earlier work
[2] = mechanically ventilated adult patients with moderate-to-severe ARDS, confirmed Covid-19 infection; cited from earlier work

SMILES | bioavailability compared ([1]; human) | values in the biological fluids [1] | pro-inflammatory cytokine generation (murine macrophages) | concentration giving total destruction of the viral culture (primary HIV-1 isolated) [µg/mL] | cytopathic effect (primary HIV-1 isolated; MT2 cell line, 25 μg/ml) | level of p24 antigen in the culture supernatant (primary HIV-1 isolated; MT2 cell line, 25 μg/ml) | cytopathic effect (primary HIV-1 isolated; MT2 cell line, 30 μg/ml) | p24 antigen (primary HIV-1 isolated; MT2 cell line, 30 μg/ml) | inhibitory effect on replication (primary HIV-1 isolated; between 5 and 20 μg/ml, cultures infected with different amounts of HIV-1) | bioavailability (in vivo) [%] | activity against the enzyme isolated from the HIV-1 protease (HIV-1 protease) | effectiveness, share of cases [2] [%]
CC1(C)CC[C@]2(C(=O)O)CC[C@]3(C)C(=CC[C@@H]4[C@@]5(C)C[C@@H](O)[C@H](O)C(C)(C)[C@@H]5CC[C@]43C)[C@@H]2C1 [Maslinic acid, 2-alfa,3-betadihydroxy-28-carboxiolean-12-eno] | higher than that of OA | increased in the biological fluids in a dose-dependent manner | strong reduction | ≥ 25 | decrease was detected | decrease was detected | absence total cytopathic effect | decrease in p24 antigen | did not produce any inhibitory effect | 60 | has in vitro activity | –
C[C@@H]1C[C@H]2[C@@H]3CCC4=CC(=O)C=C[C@]4(C)[C@@]3(F)[C@@H](O)C[C@]2(C)[C@@]1(O)C(=O)CO [Dexametasone] | – | – | – | – | – | – | – | – | – | – | – | 33
CC1(C)CC[C@]2(C(=O)O)CC[C@]3(C)C(=CC[C@@H]4[C@@]5(C)CC[C@H](O)C(C)(C)[C@@H]5CC[C@]43C)[C@@H]2C1 [OA, Oleanolic acid] | – | increased in the biological fluids in a dose-dependent manner | – | – | – | – | – | – | – | – | – | –
